From publication PMC4143111, “Photoswitchable precision glycooligomers and their lectin binding” (Beilstein Journal of Organic Chemistry, 2014)

Legend:
PA-IL [1] = target: T1, PA-IL (Pseudomonas aeruginosa, UniProt Q05097); assay: SPR inhibition/competition assay of PA-IL binding to β-D-galactose-polymer chip
Description: In order to determine the binding affinity of the precision glycooligomers to PA-IL, surface plasmon resonance (SPR) experiments were performed. At first, an inhibition/competition assay was carried out. The SPR chip was modified with a β-D-galactose-polymer and α-D-mannose-polymer as negative control (see Supporting Information File 1). In a first experiment, binding of PA-IL (1 µM) to the chip was determined and set as 100%. In a second set of experiments, binding of preincubated mixtures of PA-IL (1 µM) and glycooligomers at serial dilutions (400 µM to 0.1 µM) were measured. […] Plotting this concentration dependent decrease in binding against […], sigmoidal curves were obtained and fitted with the Hill equation. The inhibitory concentration at 50% binding (IC50) was derived for the different glycooligomers (Table 2).
SPR PA-IL inhibition/competition studies:
A sensor chip SA coated with streptavidin was conditioned with three consecutive injections of 100 µl 1 M NaCl and 50 mM NaOH in a flow rate of 100 µL/min. Then, biotinylated β-D-galactose-PAA (0.1 nM in HBS-EP buffer) was immobilized on flow cell 2 with HBS-EP buffer in a flow rate of 5 µL/min.
Biotinylated α-D-mannose-PAA with the same concentration was immobilized as reference on flow cell 1. Binding analyses were carried out with running buffer (HEPES 10 mM, NaCl 150 mM, CaCl2 10 mM, pH 7.4.) at a flow rate of 20 µl/min. The PA-IL binding of the glycooligomers AZO-Gal(1,3)-3, AZO-Gal(1,3,5)-5, EDS-Gal(1,3)-3, EDS-Gal(1,3,5)-5 and AZO-Man(1,3,5)-5 (as control) was examined.
1 µM Pa-IL was incubated with the specific substance at final concentrations of 400 µM, 100 µM, 50 µM, 25 µM, 10 µM, 1 µM and 0.1 µM, in running buffer for 60 minutes at room temperature.
45 µL of each sample were injected over both lanes whereas the binding signal on the reference cell (α-D-mannose-PAA) was subtracted from the β-D-galactose-PAA flow cell during the binding measurement. Each binding cycle consisted of an injection phase for 80 s followed by a 100 s dissociation phase. The chip was regenerated after each run with 100 mM D-galactose in running buffer. The response values were calculated by subtraction of the report point at the beginning of the sample injections (0 s) from the report point at the end of the dissociation phase ([…]). The binding signal obtained by the 1 µM Pa-IL solution in running buffer without inhibitor was set to 100 % binding. This sample was measured 2 times before and 2 times after each measuring cycle. The binding signals of the specific inhibitor was referred to Pa-IL and calculated for relative PA-Il binding in % of PA-IL. Each data point (concentration) represents the mean value (± SEM) of two measurements. The obtained data points for each concentration were plotted with Origin 8.5G and fit with Hill1 equation, allowing for the determination of IC50 values (the concentration of inhibitor that results from 50 % binding of PA-IL binding to β-D-galactose-PAA on the sensor chip).
The characteristic sigmoidal shape (see Figure S4) was fitted with the Hill equation to obtain the IC50 […]
where Start is the value at 100% binding and equals 100, End is the value where no binding is observed anymore and equals 0, x corresponds to the concentration and n describes the cooperativity. IC50 values describe the inhibitory potential of a ligand for a specific receptor which is no direct measure for the affinity of a ligand but can be related to the affinity of the ligand in a competitive experiment e.g. as we have performed with PA-IL and against β-D-galactose.

PA-IL [2] = target: T1, PA-IL; assay: SPR direct binding assay, glycooligomers immobilized on chip, PA-IL flown over; conditions: steady-state affinity model
From the text: In order to approach practical applications of a photoswitchable device that could modulate its binding affinity towards PA-IL lectins on demand, we were intrigued in the ability of our light-responsive systems to work when immobilized on a surface. To this end we attached the photoswitchable precision glycooligomers directly to the SPR chip and performed a second set of lectin binding experiments using SPR and measuring PA-IL binding on the chip. The glycooligomers were covalently linked to the chip via their terminal amine group and the simultaneous activation of the carboxyl-functionalized chip surface as N-hydroxysuccinimide (NHS) ester (see Supporting Information File 1). Successful functionalization was monitored by SPR. Photoswitching of the glycooligomers was realized either ex situ prior to surface functionalization or in situ by direct irradiation of the functionalized chip. The equilibrium constant KD was obtained by fitting the obtained binding values at the turning point between binding- and dissociation-curve with a steady-state affinity model (Biacore T100 Evaluation Software 2.0.3). In agreement with the previously determined IC50 values, all KD values are in the µM range.
Figure S5: Inhibition curves of controls, Azo-Man(1,3,5)-5 and β-methyl galactose.
SPR PA-IL direct binding studies
For direct binding studies, glycooligomers E-Azo-Gal(1,3)-3, E-Azo-Gal(1,3,5)-5, Azo-Gal(1,3)-3-PSS and Azo-Gal(1,3,5)-5-PSS were immobilized on Biacore CM5 sensor chips. Two PSS were additionally generated by irradiation of the corresponding E structure immobilized on the Biacore sensor chip with light at 360 nm (see irradiation section above for details). Immobilizations were performed by flowing a solution of 2 mM glycoligand for 5 minutes with 10 µL per minute over one flow cell, after activation of it with 0.4 M […] in water and 0.1 M NHS in water. Remaining active ester groups were capped by injection of 1 M ethanolamine. HBS-P (0.01 M HEPES pH 7.4, 0.15 M NaCl, 0.005% v/v Surfactant P20 in water) was used as running buffer. A second flow cell was immobilized as blank reference cell, by flowing 1 M ethanolamine over the cell after activation with 0.4 M EDS in water and 0.1 M NHS in water. Serial dilutions of PA-IL (25 µM, 10 µM, 5 µM, 1 µM, 0.1 µM and 0 µM) were then flown over the sensor chip at 25 °C with Hepes running buffer (HEPES 10 mM, NaCl 150 mM, CaCl2 10 mM, pH 7.4.). Binding of lectin was evaluated with Biacore T100 evaluation software, determining KD affinity constants by employing a steady state affinity model.
(1 picture or pasted object on this page, not shown here)

[3] = Photoisomerization, composition at photostationary state by UPLC; assay type: physicochemical; conditions: irradiation at 360 nm
Description: The photochromic behavior of the newly synthesized AZO-glycooligomers was investigated by UV–vis absorption spectroscopy and ultraperformance liquid chromatography (UPLC). Aqueous solutions of Azo-Gal(1,3)-3 and Azo-Gal(1,3,5)-5 (the compounds were dissolved in the buffer used for the SPR measurements, see Supporting Information File 1 for the details) were irradiated at λ = 360 nm to induce the E → Z isomerization. […] The composition at the photostationary state (PSS) was analyzed by UPLC using integration of the UV signal at the wavelengths of the isosbestic points.

[4] = no isomer state given (control structures), PA-IL 1 µM

T1 sequence (Q05097 whole entry): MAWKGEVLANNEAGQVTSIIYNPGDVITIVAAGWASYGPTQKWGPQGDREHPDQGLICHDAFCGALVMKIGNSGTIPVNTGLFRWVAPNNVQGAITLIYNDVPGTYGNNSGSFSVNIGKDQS

Structure (SMILES): CC(=O)NCCN(CCNC(=O)CCC(=O)NCc1ccc(/N=N/c2ccc(C(=O)NCCN(CCNC(=O)CCC(=O)NCCN)C(=O)CCc3cn(CCO[C@@H]4O[C@H](CO)[C@H](O)[C@H](O)[C@H]4O)nn3)cc2)cc1)C(=O)CCc1cn(CCO[C@@H]2O[C@H](CO)[C@H](O)[C@H](O)[C@H]2O)nn1 [AZO-Gal(1,3)-3]
- IC50 (PA-IL [1]; IC50, E-isomer, PA-IL 1 µM preincubated with glycooligomer 400 µM to 0.1 µM): 5.7 ± 1.7 µM
- IC50 (PA-IL [1]; IC50, PSS: photostationary state @ 360 nm, PA-IL 1 µM preincubated with glycooligomer 400 µM to 0.1 µM): 9.4 ± 0.1 µM
- Kd (PA-IL [2]; KD, E-form immobilized on chip, 25 °C): 1.7 ± 0.1 µM
- Kd (PA-IL [2]; KD, PSS @ 360 nm, ex situ irradiation before immobilization): 2.4 ± 0.1 µM
- Kd (PA-IL [2]; KD, PSS @ 360 nm, irradiation on chip): 1.8 ± 0.1 µM
- Z-azobenzene in the PSS solution ([3]; buffer solution): 78%

Structure (SMILES): CC(=O)NCCN(CCNC(=O)CCC(=O)NCc1ccc(/N=N/c2ccc(C(=O)NCCN(CCNC(=O)CCC(=O)NCc3ccc(/N=N/c4ccc(C(=O)NCCN(CCNC(=O)CCC(=O)NCCN)C(=O)CCc5cn(CCO[C@@H]6O[C@H](CO)[C@H](O)[C@H](O)[C@H]6O)nn5)cc4)cc3)C(=O)CCc3cn(CCO[C@@H]4O[C@H](CO)[C@H](O)[C@H](O)[C@H]4O)nn3)cc2)cc1)C(=O)CCc1cn(CCO[C@@H]2O[C@H](CO)[C@H](O)[C@H](O)[C@H]2O)nn1 [AZO-Gal(1,3,5)-5]
- IC50 (PA-IL [1]; E-isomer, PA-IL 1 µM preincubated with glycooligomer 400 µM to 0.1 µM): 3.4 ± 0.4 µM
- IC50 (PA-IL [1]; PSS: photostationary state @ 360 nm, PA-IL 1 µM preincubated with glycooligomer 400 µM to 0.1 µM): 4.1 ± 1.3 µM
- Kd (PA-IL [2]; E-form immobilized on chip, 25 °C): 3.3 ± 0.3 µM
- Kd (PA-IL [2]; PSS @ 360 nm, ex situ irradiation before immobilization): 7.4 ± 0.9 µM
- Kd (PA-IL [2]; PSS @ 360 nm, irradiation on chip): 3.2 ± 0.9 µM
- E,E-isomer that did not isomerize at PSS ([3]; UPLC): 10%
- E,Z isomer at PSS ([3]; UPLC): 10%
- Z,E isomer at PSS ([3]; UPLC): 10%
- Z,Z-isomer at PSS ([3]; UPLC): 70%
- total amount of Z-azobenzenes in the PSS mixture ([3]; buffer solution, from isomer composition): 80%

Structure (SMILES): CC(=O)NCCN(CCNC(=O)CCC(=O)NCc1ccc(/N=N/c2ccc(C(=O)NCCN(CCNC(=O)CCC(=O)NCc3ccc(/N=N/c4ccc(C(=O)NCCN(CCNC(=O)CCC(=O)NCCN)C(=O)CCc5cn(CCO[C@H]6O[C@H](CO)[C@@H](O)[C@H](O)[C@@H]6O)nn5)cc4)cc3)C(=O)CCc3cn(CCO[C@H]4O[C@H](CO)[C@@H](O)[C@H](O)[C@@H]4O)nn3)cc2)cc1)C(=O)CCc1cn(CCO[C@H]2O[C@H](CO)[C@@H](O)[C@H](O)[C@@H]2O)nn1 [AZO-Man(1,3,5)-5]
- binding to PA-IL (in words) (PA-IL [1]; SPR inhibition/competition assay): does not show any binding
- IC50 (PA-IL [1]; [4]): n.b.^b

Structure (SMILES): CC(=O)NCCN(CCNC(=O)CCC(=O)NCCOCCOCCNC(=O)CCC(=O)NCCN(CCNC(=O)CCC(=O)NCCN)C(=O)CCc1cn(CCO[C@@H]2O[C@H](CO)[C@H](O)[C@H](O)[C@H]2O)nn1)C(=O)CCc1cn(CCO[C@@H]2O[C@H](CO)[C@H](O)[C@H](O)[C@H]2O)nn1 [EDS-Gal(1,3)-3]
- IC50 (PA-IL [1]; IC50, no isomer state given (control structures), PA-IL 1 µM): 3.2 ± 0.2 µM

Structure (SMILES): CC(=O)NCCN(CCNC(=O)CCC(=O)NCCOCCOCCNC(=O)CCC(=O)NCCN(CCNC(=O)CCC(=O)NCCOCCOCCNC(=O)CCC(=O)NCCN(CCNC(=O)CCC(=O)NCCN)C(=O)CCc1cn(CCO[C@@H]2O[C@H](CO)[C@H](O)[C@H](O)[C@H]2O)nn1)C(=O)CCc1cn(CCO[C@@H]2O[C@H](CO)[C@H](O)[C@H](O)[C@H]2O)nn1)C(=O)CCc1cn(CCO[C@@H]2O[C@H](CO)[C@H](O)[C@H](O)[C@H]2O)nn1 [EDS-Gal(1,3,5)-5]
- IC50 (PA-IL [1]; [4]): 2 ± 0.6 µM
